Results: ChEMBL document CHEMBL1142044, “Estrogen receptor ligands. Part 10: Chromanes: old scaffolds for new SERAMs” (Bioorg Med Chem Lett, 2005)

Key:
Assay type in all cases: ADME, organism-based
[1] = Bioavailability in rat (female) (dose 1 mg/kg i.v. and 2 mg/kg p.o.); details: in vivo, po
[2] = Plasma clearance in female rat was determined with intravenous dosing at 1 mpk and oral dosing at 2 mpk; details: 1 mg/kg
[3] = Half life in female rat was determined with intravenous dosing at 1 mpk and oral dosing at 2 mpk; details: in vivo

Row | SMILES | bioavailability [1] | clearance [2] | half-life [3]
1 | C[C@@H]1c2ccc(O)cc2O[C@@H](c2ccc(OCCN3CCCCC3)cc2)[C@H]1c1ccc(O)cc1 | 2% | 9.5 mL/min/kg | 5.9 h
2 | C[C@@H]1c2c(ccc(O)c2F)O[C@@H](c2ccc(OCCN3CCCCC3)cc2)[C@H]1c1ccc(O)cc1 | 54% | 16.9 mL/min/kg | 11.2 h
3 | C[C@@H]1c2cc(O)ccc2O[C@@H](c2ccc(OCCN3CCCCC3)cc2)[C@H]1c1ccc(O)cc1 | 45% | 7.7 mL/min/kg | 8.1 h
4 | C[C@@H]1c2c(ccc(O)c2F)O[C@@H](c2ccc(OC[C@H](C)N3CCCC3)cc2)[C@H]1c1ccc(O)cc1 | 31% | 42.6 mL/min/kg | 4.4 h

Second part, the compound after the results:

Row | bioavailability [1] | clearance [2] | half-life [3] | SMILES
5 | 44% | 9 mL/min/kg | 6.1 h | C[C@H]1CCN([C@@H](C)COc2ccc([C@@H]3Oc4ccc(O)c(F)c4[C@@H](C)[C@@H]3c3ccc(O)cc3)cc2)C1
6 | 43% | 17.8 mL/min/kg | 8 h | C[C@@H]1CCN(CCOc2ccc([C@@H]3Oc4ccc(O)c(F)c4[C@@H](C)[C@@H]3c3ccc(O)cc3)cc2)C1
